{
  "source": "BindingDB's records for doi:10.1021/jm9705519",
  "about": "(National Institute On Drug Abuse-Intramural Research Program, 1998)",
  "note": "pIC50: −log10 of the molar value.",
  "data": [
    {"target": "Sigma non-opioid intracellular receptor 1 (Cavia porcellus) (UniProt Q60492)", "sequence (Q60492 whole entry, looked up)": "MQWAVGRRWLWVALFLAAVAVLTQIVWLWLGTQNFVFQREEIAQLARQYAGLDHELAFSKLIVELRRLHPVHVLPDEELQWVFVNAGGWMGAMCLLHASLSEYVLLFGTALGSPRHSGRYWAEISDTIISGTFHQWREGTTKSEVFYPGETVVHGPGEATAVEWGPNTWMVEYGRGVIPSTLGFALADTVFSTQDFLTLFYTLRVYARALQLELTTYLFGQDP", "test": "Binding affinity was evaluated using [3H]pentazocine binding to sigma-1 receptor from guinea pig brain", "values": [
      {"smiles": "C[C@H]1CN(CCCn2c3ccccc3c3ccccc32)C[C@H](C)N1C", "pIC50": 6.05},
      {"smiles": "CC1CN(CCCn2c3ccccc3c3ccccc32)CC(C)N1CCN=C=S", "note": "(centres undefined) [9-{3-[4-(2-Isothiocyanato-ethyl)-3,5-dimethyl-piperazin-1-yl]-propyl}-9H-carbazole]", "pIC50": 6.02},
      {"smiles": "CC1CN(CCCn2c3ccccc3c3ccccc32)CC(C)N1CCCN=C=S", "note": "(centres undefined) [9-{3-[4-(3-Isothiocyanato-propyl)-3,5-dimethyl-piperazin-1-yl]-propyl}-9H-carbazole]", "pIC50": 5.74},
      {"smiles": "CC1CN(CCCn2c3ccccc3c3ccccc32)CC(C)N1CCCCCCN=C=S", "note": "(centres undefined) [9-{3-[4-(6-Isothiocyanato-hexyl)-3,5-dimethyl-piperazin-1-yl]-propyl}-9H-carbazole]", "pIC50": 6.15}
    ]}
  ]
}
